Legend:
EMT-6 mammary tumors [1] = assay: Biodistribution study of [76Br]6 (Example 4), low and high dose groups; format: in vivo, Balb/C mice
From the text: (§1) This compound was studied in mature Balb/C mice that were implanted with EMT-6 mammary tumors. The mice were implanted in the nape of the neck 7 days prior to the study. The biodistribution study consisted of three groups: 1 hr low dose (≈6 μCi), 4 hr low dose and a 4 hr high dose (≈150 μCi). The % ID/g at 1 hr for tumor, brain, fat, blood and liver were 4.0±0.4, 0.25±0.02, 1.1±0.4, 2.1±0.3 and 5.4±0.4, respectively. At 4 hr for the low dose animals the values decreased to 1.2±0.2, 0.15±0.02, 0.3±0.2, 0.82±0.08 and 1.3±0.2, respectively. […] The activity injected into the high dose animals was enough to perform microPET® imaging studies. […] This initial study has shown that this σ2 receptor compound has a high uptake into EMT-6 mammary tumors and can be imaged non-invasively. (MicroPET® is a dedicated PET scanner designed for high resolution imaging of small laboratory animals. It is available from Concorde Microsystems, Inc. 10427 Cogdill Rd, Suite 500 Knoxville, Tenn. 37932 USA.)

[2] = tested on: EMT-6 breast tumor xenograft; assay: MicroPET imaging studies in mice bearing EMT-6 breast tumor; format: in vivo, Balb-c mice
Protocol: The no-carrier-added (NCA) study is on the left and the sigma receptor blocking study (1 mg/kg, i.v. YUN-143) is shown on the right.
as §1
MicroPET® Imaging Studies—The inventors conducted microPET® imaging studies with [^76Br]6 in Balb-c mice bearing EMT-6 breast tumor xenografts to model a living mammal afflicted with cancer.

EMT-6 mammary tumors [3] = assay: Comparison with [18F]FLT in tumor-bearing mice; format: in vivo; settings: 1 hr for [11C]10; 2 hr post-i.v. injection for [76Br]6 and [125I]6i
EMT-6 mammary tumors [4] = assay: Biodistribution in EMT-6 BALB/C mice; format: in vivo
Protocol: As used herein, the term “tumor:background ratio” (i.e., tumor:fat ratio, tumor:muscle ratio, tumor:lung ratio, tumor:blood ratio) refers to the % injected dose/g tissue of the radiotracer in the tumor divided by the % injected dose/g […] in the background tissue (i.e., fat, muscle, lung, blood).
B. Biodistribution Studies of ^11C analogs in Tumor-Bearing Mice. Biodistribution studies were conducted in mature Balb/c mice that were implanted with EMT-6 mammary tumors identified herein as EMT-6 BALB/C mice to create laboratory tumor-bearing mice. The mice were implanted in the scapular region seven days prior to the study. Animals were injected with 100-150 μCi of the ^11C-labeled radiotracer and the animals were sacrificed at 5, 30, and 60 min post-i.v. injection of the radiotracer.
A series of biodistribution studies in tumor-bearing mice were also conducted with [^76Br]8, [^76Br]6, [^125I]8i, and [^125I]6i.

[5] = molecular target: T1, σ2 receptors in the breast tumors (Mus musculus, UniProt Q8VD00); assay: In vivo blocking studies with YUN 143 in tumor-bearing mice; settings: blocking agent YUN 143 (1 mg/kg, i.v.); time point of highest % I.D./gram tumor
T1 construct: mature Balb/c mice that were implanted with EMT-6 mammary tumors; from tissue; host or cells: EMT-6 mammary tumours in Balb/c mice, in vivo
T1 sequence (Q8VD00 1-176): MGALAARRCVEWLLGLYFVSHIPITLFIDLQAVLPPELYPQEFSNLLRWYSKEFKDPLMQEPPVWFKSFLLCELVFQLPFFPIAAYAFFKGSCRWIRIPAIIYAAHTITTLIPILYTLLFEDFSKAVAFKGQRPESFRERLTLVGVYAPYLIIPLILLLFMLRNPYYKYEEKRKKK
From the text: The blocking agent was YUN 143, which has a high affinity for σ1 and σ2 receptors. Animals were sacrificed at the time point displaying the highest % I.D./gram tumor.
The inventors then conducted blocking studies in order to confirm that the radiotracer labeled σ2 receptors in the breast tumors. […] We have previously reported that [^18F]YUN 143 labels σ1 and σ2 receptors in breast tumor xenografts (Mach et al., 2001).

% ID/g for the 4 hr high dose animals versus low dose (EMT-6 mammary tumors [1]; 4 hr, high dose (≈150 μCi)): not significantly different | % ID/g blood (EMT-6 mammary tumors [1]; 1 hr, low dose (≈6 μCi)): 2.1±0.3 % ID/g | % ID/g blood (EMT-6 mammary tumors [1]; 4 hr, low dose): 0.82±0.08 % ID/g | % ID/g brain (EMT-6 mammary tumors [1]; 1 hr, low dose (≈6 μCi)): 0.25±0.02 % ID/g | % ID/g brain (EMT-6 mammary tumors [1]; 4 hr, low dose): 0.15±0.02 % ID/g | % ID/g fat (EMT-6 mammary tumors [1]; 1 hr, low dose (≈6 μCi)): 1.1±0.4 % ID/g | % ID/g fat (EMT-6 mammary tumors [1]; 4 hr, low dose): 0.3±0.2 % ID/g | % ID/g liver (EMT-6 mammary tumors [1]; 1 hr, low dose (≈6 μCi)): 5.4±0.4 % ID/g | % ID/g liver (EMT-6 mammary tumors [1]; 4 hr, low dose): 1.3±0.2 % ID/g | % ID/g tumor (EMT-6 mammary tumors [1]; 1 hr, low dose (≈6 μCi)): 4.0±0.4 % ID/g | % ID/g tumor (EMT-6 mammary tumors [1]; 4 hr, low dose): 1.2±0.2 % ID/g | ratio Tumor:blood (EMT-6 mammary tumors [4]; 5 min): 2.25 ± 0.28 | ratio Tumor:fat (EMT-6 mammary tumors [4]; 5 min): 1.30 ± 0.24 | ratio Tumor:heart (EMT-6 mammary tumors [4]; 5 min): 0.65 ± 0.07 | ratio Tumor:lung (EMT-6 mammary tumors [4]; 5 min): 0.19 ± 0.02 | ratio Tumor:muscle (EMT-6 mammary tumors [4]; 5 min): 1.32 ± 0.16 | ratio Tumor:blood (EMT-6 mammary tumors [4]; 30 min): 2.41 ± 0.08 | ratio Tumor:fat (EMT-6 mammary tumors [4]; 30 min): 2.35 ± 0.34 | ratio Tumor:heart (EMT-6 mammary tumors [4]; 30 min): 2.48 ± 0.17 | ratio Tumor:lung (EMT-6 mammary tumors [4]; 30 min): 0.93 ± 0.09 | ratio Tumor:muscle (EMT-6 mammary tumors [4]; 30 min): 3.70 ± 1.06 | ratio Tumor:blood (EMT-6 mammary tumors [4]; 1 hour): 2.53 ± 0.54 | ratio Tumor:fat (EMT-6 mammary tumors [4]; 1 hour): 5.09 ± 1.39 | ratio Tumor:heart (EMT-6 mammary tumors [4]; 1 hour): 3.72 ± 0.72 | ratio Tumor:lung (EMT-6 mammary tumors [4]; 1 hour): 1.64 ± 0.30 | ratio Tumor:muscle (EMT-6 mammary tumors [4]; 1 hour): 6.76 ± 2.09 | ratio Tumor:blood (EMT-6 mammary tumors [4]; 2 hour): 3.79 ± 0.99 | ratio Tumor:fat (EMT-6 mammary tumors [4]; 2 hour): 7.97 ± 1.95 | ratio Tumor:heart (EMT-6 mammary tumors [4]; 2 hour): 5.77 ± 0.60 | ratio Tumor:lung (EMT-6 mammary tumors [4]; 2 hour): 2.30 ± 0.13 | ratio Tumor:muscle (EMT-6 mammary tumors [4]; 2 hour): 8.81 ± 0.91 | ratio Tumor:blood (EMT-6 mammary tumors [4]; 4 hour): 3.17 ± 0.58 | ratio Tumor:fat (EMT-6 mammary tumors [4]; 4 hour): 20.69 ± 10.77 | ratio Tumor:heart (EMT-6 mammary tumors [4]; 4 hour): 6.24 ± 1.28 | ratio Tumor:lung (EMT-6 mammary tumors [4]; 4 hour): 2.36 ± 0.46 | ratio Tumor:muscle (EMT-6 mammary tumors [4]; 4 hour): 9.48 ± 2.14 | % ID per gram blood (EMT-6 mammary tumors [4]; 5 min): 2.12 ± 0.20 % ID per gram | % ID per gram blood (EMT-6 mammary tumors [4]; 30 min): 2.20 ± 0.24 % ID per gram | % ID per gram blood (EMT-6 mammary tumors [4]; 1 hour): 1.60 ± 0.22 % ID per gram | % ID per gram blood (EMT-6 mammary tumors [4]; 2 hour): 0.46 ± 0.07 % ID per gram | % ID per gram blood (EMT-6 mammary tumors [4]; 4 hour): 0.21 ± 0.03 % ID per gram | % ID per gram bone (EMT-6 mammary tumors [4]; 5 min): 3.10 ± 0.67 % ID per gram | % ID per gram bone (EMT-6 mammary tumors [4]; 30 min): 2.76 ± 0.58 % ID per gram | % ID per gram bone (EMT-6 mammary tumors [4]; 1 hour): 1.38 ± 0.09 % ID per gram | % ID per gram bone (EMT-6 mammary tumors [4]; 2 hour): 0.56 ± 0.20 % ID per gram | % ID per gram bone (EMT-6 mammary tumors [4]; 4 hour): 0.12 ± 0.03 % ID per gram | % ID per gram brain (EMT-6 mammary tumors [4]; 5 min): 1.60 ± 0.15 % ID per gram | % ID per gram brain (EMT-6 mammary tumors [4]; 30 min): 0.41 ± 0.06 % ID per gram | % ID per gram brain (EMT-6 mammary tumors [4]; 1 hour): 0.17 ± 0.02 % ID per gram | % ID per gram brain (EMT-6 mammary tumors [4]; 2 hour): 0.05 ± 0.00 % ID per gram | % ID per gram brain (EMT-6 mammary tumors [4]; 4 hour): 0.03 ± 0.00 % ID per gram | % ID per gram fat (EMT-6 mammary tumors [4]; 5 min): 3.78 ± 0.97 % ID per gram | % ID per gram fat (EMT-6 mammary tumors [4]; 30 min): 2.27 ± 0.16 % ID per gram | % ID per gram fat (EMT-6 mammary tumors [4]; 1 hour): 0.81 ± 0.16 % ID per gram | % ID per gram fat (EMT-6 mammary tumors [4]; 2 hour): 0.22 ± 0.05 % ID per gram | % ID per gram fat (EMT-6 mammary tumors [4]; 4 hour): 0.04 ± 0.02 % ID per gram | % ID per gram heart (EMT-6 mammary tumors [4]; 5 min): 7.31 ± 0.70 % ID per gram | % ID per gram heart (EMT-6 mammary tumors [4]; 30 min): 2.15 ± 0.30 % ID per gram | % ID per gram heart (EMT-6 mammary tumors [4]; 1 hour): 1.08 ± 0.07 % ID per gram | % ID per gram heart (EMT-6 mammary tumors [4]; 2 hour): 0.30 ± 0.03 % ID per gram | % ID per gram heart (EMT-6 mammary tumors [4]; 4 hour): 0.11 ± 0.02 % ID per gram | % ID per gram kidney (EMT-6 mammary tumors [4]; 5 min): 31.20 ± 2.92 % ID per gram | % ID per gram kidney (EMT-6 mammary tumors [4]; 30 min): 18.51 ± 2.66 % ID per gram | % ID per gram kidney (EMT-6 mammary tumors [4]; 1 hour): 10.81 ± 1.72 % ID per gram | % ID per gram liver (EMT-6 mammary tumors [4]; 5 min): 10.99 ± 0.29 % ID per gram | % ID per gram liver (EMT-6 mammary tumors [4]; 30 min): 8.85 ± 0.52 % ID per gram | % ID per gram liver (EMT-6 mammary tumors [4]; 1 hour): 4.58 ± 0.36 % ID per gram | % ID per gram lung (EMT-6 mammary tumors [4]; 5 min): 24.64 ± 2.74 % ID per gram | % ID per gram lung (EMT-6 mammary tumors [4]; 30 min): 5.81 ± 1.12 % ID per gram | % ID per gram lung (EMT-6 mammary tumors [4]; 1 hour): 2.45 ± 0.17 % ID per gram | % ID per gram lung (EMT-6 mammary tumors [4]; 2 hour): 0.74 ± 0.04 % ID per gram | % ID per gram muscle (EMT-6 mammary tumors [4]; 5 min): 3.62 ± 0.27 % ID per gram | % ID per gram muscle (EMT-6 mammary tumors [4]; 30 min): 1.54 ± 0.49 % ID per gram | % ID per gram muscle (EMT-6 mammary tumors [4]; 1 hour): 0.61 ± 0.11 % ID per gram | % ID per gram muscle (EMT-6 mammary tumors [4]; 2 hour): 0.20 ± 0.03 % ID per gram | % ID per gram muscle (EMT-6 mammary tumors [4]; 4 hour): 0.07 ± 0.01 % ID per gram | % ID per gram tumor (EMT-6 mammary tumors [4]; 5 min): 4.78 ± 0.78 % ID per gram | % ID per gram tumor (EMT-6 mammary tumors [4]; 30 min): 5.31 ± 0.62 % ID per gram | % ID per gram tumor (EMT-6 mammary tumors [4]; 1 hour): 3.98 ± 0.58 % ID per gram | % ID per gram tumor (EMT-6 mammary tumors [4]; 2 hour): 1.71 ± 0.17 % ID per gram | % ID per gram tumor (EMT-6 mammary tumors [4]; 4 hour): 0.68 ± 0.15 % ID per gram
Structure (SMILES): COc1cc2c(cc1OC)CN(CCCCNC(=O)c1cc([76Br])cc(OC)c1OC)CC2 [[^76Br]6]
microPET imaging: identification of tumors ([2]; high dose animals, 1 and 2 hr, three animals): tumors were clearly identified | microPET imaging: tumor uptake, NCA study versus sigma receptor blocking study ([2]; no-carrier-added versus blocking with YUN-143 1 mg/kg i.v.): high uptake of the radiotracer in the NCA study (left image), which can be blocked with a known sigma receptor ligand | tumor:background ratios compared with [18F]FLT (EMT-6 mammary tumors [3]): higher tumor:background ratios greater than that observed with [^18F]FLT | in vivo blocking study result [5]: consistent with the labeling of σ2 receptors in vivo

Reference: US7893266B2, “Detection of cancer cells in vitro using sigma-2 receptor ligands as radiotracers” (Washington University, priority 2003, dated 2011)
